Assays:
Format in all cases: in vivo
[1] = system: sedge, umbrella (small-flower umbrella sedge, Cyperus difformis); assay: Test B flooded paddy test, visual plant response rating; details: 250 g ai/ha, Flood, applied to paddy water, 2-leaf stage, evaluated after 13 to 15 days
Method in brief: (§1)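 Flooded-pot treatment: water 3 cm over the soil, chemical delivered into that water, depth unchanged for the duration. Assessed by eye versus controls following 13–15 greenhouse days; plants were at 2 leaves when dosed.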

[2] = system: barnyardgrass (Echinochloa crus-galli); assay: as above; details: 250 g ai/ha, Flood, applied to paddy water, 2-leaf stage, evaluated after 13 to 15 days
Method in brief: as §1

[3] = system: rice (Oryza sativa); assay: as above; details: 250 g ai/ha, Flood, applied to paddy water, 2-leaf stage, evaluated after 13 to 15 days
Method in brief: as §1

[4] = system: ducksalad (Heteranhera limosa); assay: as above; details: 250 g ai/ha, Flood, applied to paddy water, 2-leaf stage, evaluated after 13 to 15 days
Method in brief: as §1

[5] = system: galium (catchweed bedstraw, Galium aparine); assay: Test A postemergence, visual plant response rating; details: for Galium plant response rating (0 to 100 scale): 500 g ai/ha, postemergence, 0 is no effect, 100 is complete control; for Galium plant response rating: Postemergence, 125 g ai/ha, 0 to 100 scale (0 no effect, 100 complete control)
Method in brief: (§2)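 Ratings use a 0–100 visual scale (100 = complete control) against untreated controls, scored about 10 days after greenhouse treatment. Test chemicals were formulated in surfactant-containing non-phytotoxic solvent and applied either as soil spray after planting (preemergence) or onto one- to two-leaf, 2–10 cm plants (postemergence).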

[6] = system: blackgrass (Alopecurus myosuroides); assay: Test A postemergence, visual plant response rating; details: for Blackgrass plant response rating (0 to 100 scale): 500 g ai/ha, postemergence, 0 is no effect, 100 is complete control; for Blackgrass plant response rating: Postemergence, 125 g ai/ha, 0 to 100 scale (0 no effect, 100 complete control)
Method in brief: as §2

[7] = system: kochia (Kochia scoparia); assay: Test A postemergence, visual plant response rating; details: for Kochia plant response rating (0 to 100 scale): 500 g ai/ha, postemergence, 0 is no effect, 100 is complete control; for Kochia plant response rating: Postemergence, 125 g ai/ha, 0 to 100 scale (0 no effect, 100 complete control)
Method in brief: as §2

[8] = system: corn (Zea mays); assay: Test A postemergence, visual plant response rating; details: for Corn plant response rating (0 to 100 scale): 500 g ai/ha, postemergence, 0 is no effect, 100 is complete control; for Corn plant response rating: Postemergence, 125 g ai/ha, 0 to 100 scale (0 no effect, 100 complete control)
Method in brief: as §2

[9] = system: wheat (Triticum aestivum); assay: Test A postemergence, visual plant response rating; details: for Wheat plant response rating: 0 to 100 scale (0 no effect, 100 complete control)
Method in brief: as §2

[10] = system: barnyardgrass (Echinochloa crus-galli); assay: Test A postemergence, visual plant response rating; details: for Barnyardgrass plant response rating (0 to 100 scale): 500 g ai/ha, postemergence, 0 is no effect, 100 is complete control; for Barnyardgrass plant response rating: Postemergence, 125 g ai/ha, 0 to 100 scale (0 no effect, 100 complete control)
Method in brief: as §2

[11] = system: Italian ryegrass (Lolium multiflorum); assay: Test A postemergence, visual plant response rating
Method in brief: as §2

[12] = system: foxtail, giant (giant foxtail, Setaria faberii); assay: Test A postemergence, visual plant response rating; details: for Foxtail, Giant plant response rating (0 to 100 scale): 500 g ai/ha, postemergence, 0 is no effect, 100 is complete control; for Foxtail, Giant plant response rating: Postemergence, 125 g ai/ha, 0 to 100 scale (0 no effect, 100 complete control)
Method in brief: as §2

[13] = system: ragweed (common ragweed, Ambrosia elatior); assay: Test A postemergence, visual plant response rating; details: for Ragweed plant response rating (0 to 100 scale): 500 g ai/ha, postemergence, 0 is no effect, 100 is complete control; for Ragweed plant response rating: Postemergence, 125 g ai/ha, 0 to 100 scale (0 no effect, 100 complete control)
Method in brief: as §2

[14] = system: pigweed (Amaranthus retroflexus); assay: Test A postemergence, visual plant response rating; details: for Pigweed plant response rating (0 to 100 scale): 500 g ai/ha, postemergence, 0 is no effect, 100 is complete control; for Pigweed plant response rating: Postemergence, 125 g ai/ha, 0 to 100 scale (0 no effect, 100 complete control)
Method in brief: as §2

[15] = system: kochia (Kochia scoparia); assay: Test A preemergence, visual plant response rating; details: for Kochia plant response rating (0 to 100 scale): 500 g ai/ha Preemergence, approx. 10 days
Method in brief: as §2

[16] = system: barnyardgrass (Echinochloa crus-galli); assay: Test A preemergence, visual plant response rating; details: for Barnyardgrass plant response rating: 125 g ai/ha, preemergence, 0 to 100 scale, 0 no effect, 100 complete control; for Barnyardgrass plant response rating (0 to 100 scale): 500 g ai/ha Preemergence, approx. 10 days
Method in brief: as §2

[17] = system: Italian ryegrass (Lolium multiflorum); assay: Test A preemergence, visual plant response rating; details: for Ryegrass, Italian plant response rating: 125 g ai/ha, preemergence, 0 to 100 scale, 0 no effect, 100 complete control; for Ryegrass, Italian plant response rating (0 to 100 scale): 500 g ai/ha Preemergence, approx. 10 days
Method in brief: as §2

[18] = system: foxtail, giant (giant foxtail, Setaria faberii); assay: Test A preemergence, visual plant response rating; details: for Foxtail, Giant plant response rating: 125 g ai/ha, preemergence, 0 to 100 scale, 0 no effect, 100 complete control; for Foxtail, Giant plant response rating (0 to 100 scale): 500 g ai/ha Preemergence, approx. 10 days
Method in brief: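 Ratings 0–100 (100 = complete control), visual, vs untreated controls at ~10 days. Application pre- or postemergence; solvent mixture with surfactant; loam/sand medium.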

[19] = system: ragweed (common ragweed, Ambrosia elatior); assay: Test A preemergence, visual plant response rating; details: for Ragweed plant response rating: 125 g ai/ha, preemergence, 0 to 100 scale, 0 no effect, 100 complete control; for Ragweed plant response rating (0 to 100 scale): 500 g ai/ha Preemergence, approx. 10 days
Method in brief: as §2

[20] = system: pigweed (Amaranthus retroflexus); assay: Test A preemergence, visual plant response rating; details: for Pigweed plant response rating: 125 g ai/ha, preemergence, 0 to 100 scale, 0 no effect, 100 complete control; for Pigweed plant response rating (0 to 100 scale): 500 g ai/ha Preemergence, approx. 10 days
Method in brief: as §2

[21] = 500 g ai/ha, postemergence, 0 is no effect, 100 is complete control

Row | SMILES | Plant response rating, Sedge, Umbrella (0 to 100 scale, 0 is no effect, 100 is complete control) [1] | Plant response rating, Barnyardgrass (0 to 100 scale, 0 is no effect, 100 is complete control) [2] | Plant response rating, Rice (0 to 100 scale, 0 is no effect, 100 is complete control) [3] | Plant response rating, Ducksalad (0 to 100 scale, 0 is no effect, 100 is complete control) [4] | Galium plant response rating (0 to 100 scale) [5] | Galium plant response rating [5] | Blackgrass plant response rating (0 to 100 scale) [6] | Blackgrass plant response rating [6] | Kochia plant response rating (0 to 100 scale) [7] | Kochia plant response rating [7] | Corn plant response rating (0 to 100 scale) [8] | Corn plant response rating [8] | Barnyardgrass plant response rating (0 to 100 scale) [10] | Barnyardgrass plant response rating [10] | Ryegrass, Italian plant response rating (0 to 100 scale) [11, 21] | Foxtail, Giant plant response rating (0 to 100 scale) [12] | Foxtail, Giant plant response rating [12] | Ragweed plant response rating (0 to 100 scale) [13] | Ragweed plant response rating [13] | Pigweed plant response rating (0 to 100 scale) [14] | further results
1 | C=CCON=C(c1c(O)c(C)nn(C)c1=O)c1cc(Br)cc2ccccc12 [Compound 115] | 85 | 75 | 35 | 80 | 100 | 100 | 90 | 80 | 60 | 30 | 70 | 20 | 90 | 80 | 90 | 90 | 90 | 100 | 90 | 90 | Wheat plant response rating (0 to 100 scale) [9, 21]: 40; Wheat plant response rating ([9]; Postemergence, 125 g ai/ha): 20; Ryegrass, Italian plant response rating ([11]; Postemergence, 125 g ai/ha, 0 to 100 scale (0 no effect, 100 complete control)): 80; Pigweed plant response rating [14]: 60; Kochia plant response rating (0 to 100 scale) [15]: 10; Barnyardgrass plant response rating [16]: 90; Barnyardgrass plant response rating (0 to 100 scale) [16]: 100; Ryegrass, Italian plant response rating [17]: 80; Ryegrass, Italian plant response rating (0 to 100 scale) [17]: 90; Foxtail, Giant plant response rating [18]: 90; Foxtail, Giant plant response rating (0 to 100 scale) [18]: 100; Ragweed plant response rating [19]: 90; Ragweed plant response rating (0 to 100 scale) [19]: 90; Pigweed plant response rating [20]: 30; Pigweed plant response rating (0 to 100 scale) [20]: 90
2 | CO/N=C(/c1c(O)c(Cl)nn(C)c1=O)c1cccc2ccccc12 [Compound 145, 6-chloro-5-hydroxy-4-[(E)-(methoxyimino)-1-naphthalenylmethyl]-2-methyl-3(2H)-pyridazinone] | 0 | 0 | 0 | 0 | 100 | 90 | 70 | 30 | 90 | 80 | 0 | 0 | 60 | 30 | 10 | 60 | 30 | 100 | 100 | 80 | Wheat plant response rating ([9]; Postemergence, 500 g ai/ha): 0; Wheat plant response rating (0 to 100 scale) ([9]; Postemergence, approx. 10 days): 0; Ryegrass, Italian plant response rating (0 to 100 scale) ([11]; Postemergence, rate not given, approx. 10 days): 20; Pigweed plant response rating [14]: 30; Kochia plant response rating ([15]; 125 g ai/ha, preemergence, 0 to 100 scale, 0 no effect, 100 complete control): 70; Kochia plant response rating (0 to 100 scale) [15]: 90; Barnyardgrass plant response rating [16]: 60; Barnyardgrass plant response rating (0 to 100 scale) [16]: 80; Ryegrass, Italian plant response rating [17]: 0; Ryegrass, Italian plant response rating (0 to 100 scale) [17]: 10; Foxtail, Giant plant response rating [18]: 50; Foxtail, Giant plant response rating (0 to 100 scale) [18]: 80; Ragweed plant response rating [19]: 100; Ragweed plant response rating (0 to 100 scale) [19]: 100; Pigweed plant response rating [20]: 50; Pigweed plant response rating (0 to 100 scale) [20]: 90
